This note sets out measurements from patent US10906890B2, “Triazole phenyl compounds as agonists of the APJ receptor” (AMGEN INC., priority 2016, dated 2021).

The assay has as its target human APJ receptor (Homo sapiens (Human), UniProt P35414). As to the kind of experiment: [35S]GTPγS binding assay on membranes from CHO cells stably expressing human APJ receptor. It counts as biochemical. The following applies: means of several independent experiments, read-out: Activity hAPJ SPA EC50 IP. The gist of the method: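 Membranes from CHO cells stably expressing FLAG-tagged human APJ incubated with [35S]GTPγS in buffer with optimized GDP, MgCl2 and NaCl levels, 90 min at RT. Signal read by imaging; EC50 by non-linear regression from means of several independent experiments.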

Chain of human APJ receptor (P35414 whole entry): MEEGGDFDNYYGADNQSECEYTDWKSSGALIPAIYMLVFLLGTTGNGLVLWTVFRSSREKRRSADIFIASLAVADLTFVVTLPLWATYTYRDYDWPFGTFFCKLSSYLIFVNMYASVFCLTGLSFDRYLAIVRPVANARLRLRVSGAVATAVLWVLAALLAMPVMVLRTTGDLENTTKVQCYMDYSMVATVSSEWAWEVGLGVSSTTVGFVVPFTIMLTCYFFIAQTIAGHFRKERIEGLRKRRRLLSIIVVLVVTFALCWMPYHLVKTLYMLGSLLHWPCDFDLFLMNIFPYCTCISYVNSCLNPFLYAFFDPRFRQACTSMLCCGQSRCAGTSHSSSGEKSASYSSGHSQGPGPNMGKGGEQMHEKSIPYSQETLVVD

In the case of `COc1ncnc(OC)c1-n1c(NS(=O)(=O)[C@H]2CCCN(c3ncc(F)cn3)C2)nnc1-c1ccccc1` (single isomer, unassigned) [Example 28.0, (3S)-N-(4-(4,6-dimethoxy-5-pyrimidinyl)-5-phenyl-4H-1,2,4-triazol-3-yl)-1-(5-fluoro-2-pyrimidinyl)-3-piperidinesulfonamide or (3R)-N-(4-(4,6-dimethoxy-5-pyrimidinyl)-5-phenyl-4H-1,2,4-triazol-3-yl)-1-(5-fluoro-2-pyrimidinyl)-3-piperidinesulfonamide], the EC50 was found to be 410 nM.
Take `COc1ncnc(OC)c1-n1c(NS(=O)(=O)[C@@H](C)[C@H](OC)c2ncc(C)cn2)nnc1-c1cccc(Cl)c1` [Example 3.0, (1R,25)-N-(5-(3-chlorophenyl)-4-(4,6-dimethoxypyrimidin-5-yl)-4H-1,2,4-triazol-3-yl)-1-methoxy-1-(5-methylpyrimidin-2-yl)propane-2-sulfonamide]: the 50% effective concentration (EC50) stood at 5.3 nM.
The figure for `COc1cccc(OC)c1-n1c(NS(=O)(=O)[C@@H](C)[C@H](OC)c2ncc(C)cn2)nnc1-c1ccccc1F` [Example 67.0, (1R,2S)-N-(4-(2,6-dimethoxyphenyl)-5-(2-fluorophenyl)-4H-1,2,4-triazol-3-yl)-1-methoxy-1-(5-methyl-2-pyrimidinyl)-2-propanesulfonamide] is 5.9 nM; for `COc1cccc(OC)c1-n1c(NS(=O)(=O)[C@H]2C[C@@H](O)CN(c3ncc(F)cn3)C2)nnc1-c1ccccc1` (single isomer, unassigned) [Example 56.0, (3R,5S)-N-(4-(2,6-dimethoxyphenyl)-5-phenyl-4H-1,2,4-triazol-3-yl)-1-(5-fluoro-2-pyrimidinyl)-5-hydroxy-3-piperidinesulfonamide or (3S,5R)-N-(4-(2,6-dimethoxyphenyl)-5-phenyl-4H-1,2,4-triazol-3-yl)-1-(5-fluoro-2-pyrimidinyl)-5-hydroxy-3-piperidinesulfonamide] it is 30 nM; for `COc1ccc(-c2nnc(NS(=O)(=O)[C@@H](C)[C@H](OC)c3ncc(C)cn3)n2-c2c(OC)cccc2OC)cc1C#N` [Example 75.0, (1R,2S)-N-(5-(3-cyano-4-methoxyphenyl)-4-(2,6-dimethoxyphenyl)-4H-1,2,4-triazol-3-yl)-1-methoxy-1-(5-methyl-2-pyrimidinyl)-2-propanesulfonamide] it is 13 nM.
For `C[C@H](c1ncc(C#N)cn1)[C@H](C)S(=O)(=O)Nc1nnc(-c2ccccc2)n1-c1c(F)cccc1F` [Example 47.0, (2S,3R)-3-(5-cyano-2-pyrimidinyl)-N-(4-(2,6-difluorophenyl)-5-phenyl-4H-1,2,4-triazol-3-yl)-2-butanesulfonamide], the half-maximal effective concentration (EC50) stood at 48 nM.
Take `COc1ncnc(OC)c1-n1c(NS(=O)(=O)[C@@H](C)[C@H](C)c2cnc(C)cn2)nnc1-c1ccccc1` [Example 26.0, (2S,3R)-N-(4-(4,6-dimethoxy-5-pyrimidinyl)-5-phenyl-4H-1,2,4-triazol-3-yl)-3-(5-methyl-2-pyrazinyl)-2-butanesulfonamide]: the EC50 is 5.2 nM.
On to `COc1cccc(OC)c1-n1c(NS(=O)(=O)[C@H]2C[C@@H](O)CN(c3ncc(F)cn3)C2)nnc1-c1ccccc1` (mixture of isomers) [Example 53.0, (3R,5S)-N-(4-(2,6-dimethoxyphenyl)-5-phenyl-4H-1,2,4-triazol-3-yl)-1-(5-fluoro-2-pyrimidinyl)-5-hydroxy-3-piperidinesulfonamide and (3S,5R)-N-(4-(2,6-dimethoxyphenyl)-5-phenyl-4H-1,2,4-triazol-3-yl)-1-(5-fluoro-2-pyrimidinyl)-5-hydroxy-3-piperidinesulfonamide], for which the EC50 is 4.9 nM.
As to `COc1cccc(OC)c1-n1c(NS(=O)(=O)[C@@H](C)[C@H](OC)c2ncc(C)cn2)nnc1-c1ccc(F)c(F)c1` [Example 72.0, (1R,2S)-N-(5-(3,4-difluorophenyl)-4-(2,6-dimethoxyphenyl)-4H-1,2,4-triazol-3-yl)-1-methoxy-1-(5-methyl-2-pyrimidinyl)-2-propanesulfonamide], the EC50 was 4.5 nM.
